The text below walks through data of patent US7815907B2, “Antibodies to insulin-like growth factor I receptor” (Amgen Fremont Inc., priority 2001, dated 2010).

In general, Kd refers to the free concentration of one partner at which half of the binding sites on the other are occupied at equilibrium, for simple one-to-one binding. Read a high Kd as a looser complex.

For data set [1], the system named is COS7 IGF-IR. The experiment in a line: Species crossreactivity by immunoprecipitation/Western blot. Type of data set: binding, old world monkey. The following applies: immunoprecipitation, antibody 1 μg/ml. As to the method: To perform immunoprecipitation experiments, we plated cells in DMEM high glucose media supplemented with L-glutamine (0.29 mg/ml), 10% heat-inactivated FBS, and 500 μg/ml each of geneticin, penicillin and streptomycin to 50% confluence in T25 flasks. We then added 100 μl of an antibody of the invention in Hank's buffered saline solution (HBSS; Gibco BRL) at a concentration of 1 μg/ml. We incubated the plates for 30 minutes at 37° C. in an incubator and then stimulated the cells with IGF-I at 100 ng/ml for 10 minutes at room temperature. We lysed the cells in RIPA buffer (Harlow and Lane, supra) and immunoprecipitated IGF-IR with 2 μg of pan-specific SC-713 anti-IGF-IR antibody (Santa Cruz) plus protein A agarose beads for 1 hour at 4° C. We pelleted the beads and wash three times with PBS/T (PBS+0.1% Tween-20) and then boiled the beads in 40 μl Laemmli buffer containing 5% βME.
The samples prepared as described above were then analyzed by Western blot. We loaded 12 μl of each sample per lane on 4-10% gradient Novex™ gels run with 1×MES buffer (Novex™). Gels were run at 150V for 1 hour or at 200V for approximately 30 minutes. We then transferred the gel to a membrane in Novex™ transfer buffer with 10% methanol either overnight at 100 mA or for 1-1.5 hours at 250 mA. […]
(Immunoblotting shows a protein as a band on a membrane.)

In data set [2] the test system is MCF-7 tumors. The experiment in a line: Growth inhibition of breast cancer cell tumors. The data set is classed as in vivo, nude mice. How it is done:
Nude mice as described in Example VIII were implanted with biodegradable estrogen pellets (0.72 mg 17-β-estradiol/pellet, 60 day release; Innovative Research of America). After 48 hours, tumors were induced in nude mice essentially as described in Example IX except that MCF-7 cells (ATCC HTB-22) were used. MCF-7 cells are estrogen-dependent human breast carcinoma cells. Mice with established subcutaneous tumors of approximately 250 mm^3 were treated with 50 μg 2.13.2 antibody (i.p.) on days 1, 4, 7, 10, 13, 16, 19 and 22 […] or with 6.25 mg/kg taxol (i.p.) on days 1, 2, 3, 4, 5 (q1dx5), either as single agents or in combination, essentially as described in Example IX.
Mice having established tumors from MCF-7 cells as described immediately above were treated on day 1 with various amounts of 2.13.2 antibody (i.p.) alone or with 3.75 mg/kg adriamycin (i.v.), essentially as described in Example IX.
Mice having established tumors from MCF-7 cells as described immediately above were treated with 250 μg 2.13.2 antibody (i.p.) on days 1, 8, 15 and 23 or with a biodegradable tamoxifen pellet (25 mg/pellet, free base, 60 day release, Innovative Research of America), either as single agents or in combination, essentially as described in Example IX. The tamoxifen pellet was implanted on day 1 after the tumor was established.

A short description of data set [3]: Pharmacokinetics after single intravenous injection. The data set is classed as in vivo. The following applies: cynomolgus monkeys, 3, 30 or 100 mg/kg intravenously. How it is done:
To evaluate the pharmacokinetics of the anti-IGF-IR antibodies, cynomolgus monkeys were injected intravenously with 3, 30 or 100 mg/kg of 2.13.2 antibody in an acetate buffer. Serum was collected from the monkeys at various time points and anti-IGF-IR antibody concentrations in the monkeys were determined for a period of up to ten weeks levels. To quantitate functional serum antibody levels, the extracellular domain of the human IGF-IR (IGF-I-sR, R&D Systems, Catalog # 391GR) was bound to 96-well plates. Monkey serum (diluted between 1:100 and 1:15,000) was added to the assay plates so that each sample would be within the linear range of the standard curve and incubated under conditions in which any anti-IGF-IR antibody would bind to IGF-I-sR. After washing the plates, a labeled anti-human IgG antibody was added to the plates and incubated under conditions in which the anti-human IgG antibody would bind to the anti-IGF-IR antibody. The plates were then washed and developed, and a control standard curve and linear regression fits used to quantitate the amount of anti-IGF-IR antibodies.

Data set [4] deals with T1, extracellular domain of IGF-IR (Homo sapiens, UniProt P08069).
T1 construct: Different concentrations of the extracellular domain of IGF-IR were injected on the sensorchip
In words: BIAcore affinity measurement, Protocol 2. The data set is classed as binding. The following applies: BIAcore 3000; as Fagerstam et al. How it is done:
We performed affinity measures of purified antibodies by surface plasmon resonance using the BIAcore 3000 instrument, following the manufacturer's protocols.
BIAcore measurements were performed essentially as described by Fagerstam et al. “Detection of antigen-antibody interactions by surface plasmon resonance. Applications to epitope mapping.” J. Mol. Recog. 3: 208-214. (1990).

For “2.13.2: human IgG2κ monoclonal antibody specific for IGF-IR from hybridoma 2.13.2 (ATCC PTA-2788)”, the “binding to COS7 IGF-IR” value in data set [1] was “able to bind”. For the same substance, in data set [2] (50 μg i.p. once every three days with 6.25 mg/kg taxol i.p. q1dx5), the “effect on effectiveness of taxol” value is “enhances the effectiveness of taxol”. Further, the MCF-7 tumor growth entry in data set [2] (50 μg i.p. once every three days, by itself) was “inhibits human breast cancer cell growth”; in data set [2] (250 μg i.p. on days 1, 8, 15 and 23, by itself), “inhibits human breast cancer growth”; in data set [2] (single treatment i.p. on day 1, by itself), “inhibits human breast cancer cell growth”. Besides, the “effect on effectiveness of tamoxifen” value in data set [2] (250 μg i.p. on days 1, 8, 15 and 23 with tamoxifen pellet 25 mg) was “enhances the effectiveness of tamoxifen”. In addition, the “effect on effectiveness of adriamycin” value in data set [2] (single treatment on day 1 with 3.75 mg/kg adriamycin i.v.) was “enhances the effectiveness of adriamycin”. Besides, in data set [3], the “dose proportionality of serum amounts” value was “dose-proportional”. Besides, the volume distribution in data set [3] lay in the range of 74 to 105 mL/kg. In addition, binding in data set [4] was characterised by a dissociation constant (Kd) of 1.53 nM.
